Consider four compounds from paper PMC6679423 (International Journal of Molecular Sciences, 2019).

For one series, the system named is CYP3A4. To be noted: cited from earlier work.
The next series deals with T1, human recombinant CYP1A1 (Homo sapiens, UniProt P04798).
T1 construct: purchased Gentest Corp; host or cells: insect cells (baculovirus)
T1 sequence (P04798 1-512): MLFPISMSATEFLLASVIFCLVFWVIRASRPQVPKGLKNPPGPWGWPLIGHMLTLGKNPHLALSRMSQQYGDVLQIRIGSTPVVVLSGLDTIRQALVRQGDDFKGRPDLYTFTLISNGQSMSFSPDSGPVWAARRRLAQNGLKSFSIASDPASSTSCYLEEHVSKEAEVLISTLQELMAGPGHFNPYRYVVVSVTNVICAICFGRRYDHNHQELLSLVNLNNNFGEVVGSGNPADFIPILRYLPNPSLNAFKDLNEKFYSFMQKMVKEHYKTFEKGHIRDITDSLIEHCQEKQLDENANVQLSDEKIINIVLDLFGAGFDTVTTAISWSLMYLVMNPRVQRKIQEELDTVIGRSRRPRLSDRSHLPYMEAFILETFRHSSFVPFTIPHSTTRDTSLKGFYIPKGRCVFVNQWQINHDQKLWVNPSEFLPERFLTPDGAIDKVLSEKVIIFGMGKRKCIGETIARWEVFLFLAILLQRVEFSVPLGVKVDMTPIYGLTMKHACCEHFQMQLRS
Kind of series: Vandetanib oxidation by human recombinant CYP1A1 (Supersomes). The format is in vitro ADME. On the procedure: (§1) Vandetanib was from LC Laboratories (Woburn, MA, USA). Ketoconazole, NADPH, methimazol and other chemicals were all purchased from Sigma-Aldrich (St. Louis, MO, USA). The purity of all chemicals met the standards of American Chemical Society, unless noted otherwise. All animal experiments were conducted in accordance with the Regulations for the Care and Use of Laboratory Animals (311/1997, Ministry of Agriculture, Czech Republic), which follows the Declaration of Helsinki. Male Wistar rats (~125–150 g; AnLab, Czech Republic), male C57BL/6 mice ([…]; CXR Bioscience Ltd., Dundee, UK), and male New Zealand rabbits (2.5–3 kg; AnLab, Czech Republic) were employed as animal models. Animals were placed in cages in temperature- and humidity-controlled rooms, acclimatized for five days and maintained at 22 °C with a 12 h light/dark period. Standardized diet and water were provided ad libitum. Rats, mice and rabbits used to prepare microsomal fraction from untreated animals were sacrificed by cervical dislocation, livers snap-frozen in liquid nitrogen and stored at −80 °C until further processing (see below). For controls, livers of the animals were removed immediately after sacrifice, divided into small pieces (~1 g), snap-frozen in liquid nitrogen, and stored at −80 °C until isolation of microsomal fractions. Pooled microsomes were used for all in vitro experiments in the present study and prepared from 10 livers/group for all animal species following established protocols. Microsomal fractions were stored at −80 °C until analysis. Protein concentrations in the microsomal fractions were assessed using the bicinchoninic acid protein assay with bovine serum albumin as a standard. Male human hepatic microsomes (pooled sample) (sample LOT: 3043885) were from Gentest Corp. (Woburn, MA, USA). Microsomes from livers of twelve human donors were obtained from Gentest Corp. (Woburn, MA, USA) (cat. no. HG43–1, HG103, HG74, HG93, HG24, HG27, HG23, HG32, HK31, HK34, HG03, and HG42). Each human microsomal sample has been characterized for CYP, FMO and protein contents and specific CYP activities by Gentest Corp. We reanalyzed each microsomal preparation for specific CYP, NADPH:CYP reductase (POR) and FMO activities by assays described in the protocols of Gentest Corp. Our data were similar to those reported by Gentest Corp. in their specification sheets. […]

The subject of series [1] is human hepatic microsomes. Kind of series: Correlation of CYP- and FMO-linked activities with vandetanib metabolite formation in human hepatic microsomes. The class given is in vitro ADME. The settings on record: 12 human liver microsomal samples; for Correlation coefficient (r) of metabolite amount with CYP2E1 activity: chlorzoxazone-6-hydroxylase. On the procedure:
as §1, with “sheets. The content of CYP, specific CYP and FMO activities in each human hepatic microsomes [phenacetin-O-deethylation (CYP1A2), coumarin-7-hydroxylation (CYP2A6), (S)-mephenytoin-N-demethylase (CYP2B6), paclitaxel-6α-hydroxylation (CYP2C8), diclofenac-4’-hydroxylation (CYP2C9), (S)-mephenytoin-4′-hydroxylation (CYP2C19), bufuralol-1’-hydroxylation (CYP2D6), chlorzoxazone-6-hydroxylation (CYP2E1), testosterone-6β-hydroxylation (CYP3A4), lauric acid-12-hydroxylation (CYP4A), methyl-p-tolyl sulfide oxidase (FMO)] are shown in Table 2. Human recombinant enzymes were used in the forms of Supersomes™ and obtained from Gentest Corp. In Supersomes™ microsomal fractions were isolated from insect cells that are transfected with baculovirus constructs containing cDNA of human CYP enzymes (CYP1A1/2, 1B1, 2A6, 2B6, 2C8/9/18/19/, 2D6, 2E1, 3A4). These Supersomes™ also express NADPH:CYP oxidoreductase (POR). However, because they are microsomes (particles of broken endoplasmic reticulum), other enzymes (proteins) of the endoplasmic reticulum membrane (like NADH:cytochrome b5 reductase and cytochrome b5) are also expressed at basal levels in these Supersomes™. We also utilized Supersomes™ which over-expressed cytochrome b5, in a molar ratio of CYP to cytochrome b5 of 1 to 5. In Supersomes™ where cytochrome b5 was not over-expressed (see above) pure cytochrome b5 was added to reach a molar ratio of CYP to cytochrome b5 of 1 to 5. Reconstitution of Supersomes™ with purified cytochrome b5 was performed as described previously.” for “sheets.”
Background: Liver microsomes are a subcellular fraction often used to study metabolism.

The next series deals with rat hepatic microsomes. Kind of series: Oxidation of vandetanib by rat hepatic microsomes. The class given is in vitro ADME. To be noted: 50 µM vandetanib, N-oxide higher. Here is the method:
(§2) Vandetanib was from LC Laboratories (Woburn, MA, USA). Ketoconazole, NADPH, methimazol and other chemicals were all purchased from Sigma-Aldrich (St. Louis, MO, USA). The purity of all chemicals met the standards of American Chemical Society, unless noted otherwise. All animal experiments were conducted in accordance with the Regulations for the Care and Use of Laboratory Animals (311/1997, Ministry of Agriculture, Czech Republic), which follows the Declaration of Helsinki. Male Wistar rats (~125–150 g; AnLab, Czech Republic), male C57BL/6 mice ([…]; CXR Bioscience Ltd., Dundee, UK), and male New Zealand rabbits (2.5–3 kg; AnLab, Czech Republic) were employed as animal models. Animals were placed in cages in temperature- and humidity-controlled rooms, acclimatized for five days and maintained at 22 °C with a 12 h light/dark period. Standardized diet and water were provided ad libitum. Rats, mice and rabbits used to prepare microsomal fraction from untreated animals were sacrificed by cervical dislocation, livers snap-frozen in liquid nitrogen and stored at −80 °C until further processing (see below). […] Protein concentrations in the microsomal fractions were assessed using the bicinchoninic acid protein assay with bovine serum albumin as a standard. […]

A further series has as its system human recombinant FMO1. Kind of series: Vandetanib oxidation by human recombinant FMOs (Supersomes). The class given is in vitro ADME. To be noted: recombinant FMO1 vs FMO3. Here is the method: as §2
For series [2], the system named is human liver microsomes. Kind of series: Vandetanib metabolite formation by hepatic microsomes of 12 human donors. The format is in vitro ADME. The settings on record: human hepatic microsomal sample HK23; detection limit < 0.002.
The subject of series [3] is human hepatic microsomes. Kind of series: Oxidation of vandetanib by human hepatic microsomes. The format is in vitro ADME. An excerpt:
The reaction was initiated by adding vandetanib.

Series [4] relates to human liver microsomes. Kind of series: Vandetanib metabolite formation by hepatic microsomes of 12 human donors. The format is in vitro ADME. The settings on record: detection limit < 0.002. Here is the method:
as §1, with “sheets. The content of CYP, specific CYP and FMO activities in each human hepatic microsomes [phenacetin-O-deethylation (CYP1A2), coumarin-7-hydroxylation (CYP2A6), (S)-mephenytoin-N-demethylase (CYP2B6), paclitaxel-6α-hydroxylation (CYP2C8), diclofenac-4’-hydroxylation (CYP2C9), (S)-mephenytoin-4′-hydroxylation (CYP2C19), bufuralol-1’-hydroxylation (CYP2D6), chlorzoxazone-6-hydroxylation (CYP2E1), testosterone-6β-hydroxylation (CYP3A4), lauric acid-12-hydroxylation (CYP4A), methyl-p-tolyl sulfide oxidase (FMO)] are shown in Table 2. Human recombinant enzymes were used in the forms of Supersomes™ and obtained from Gentest Corp. In Supersomes™ microsomal fractions were isolated from insect cells that are transfected with baculovirus constructs containing cDNA of human CYP enzymes (CYP1A1/2, 1B1, 2A6, 2B6, 2C8/9/18/19/, 2D6, 2E1, 3A4). These Supersomes™ also express NADPH:CYP oxidoreductase (POR). However, because they are microsomes (particles of broken endoplasmic reticulum), other enzymes (proteins) of the endoplasmic reticulum membrane (like NADH:cytochrome b5 reductase and cytochrome b5) are also expressed at basal levels in these Supersomes™. We also utilized Supersomes™ which over-expressed cytochrome b5, in a molar ratio of CYP to cytochrome b5 of 1 to 5. In Supersomes™ where cytochrome b5 was not over-expressed (see above) pure cytochrome b5 was added to reach a molar ratio of CYP to cytochrome b5 of 1 to 5. Reconstitution of Supersomes™ with purified cytochrome b5 was performed as described previously.” for “sheets.”

The test system of a further series is VEGFR and EGFR. To be noted: compared to the parent drug; cited from earlier work.
The subject of series [5] is rabbit hepatic microsomes. Kind of series: Oxidation of vandetanib by rabbit hepatic microsomes. The class given is in vitro ADME. The settings on record: 50 µM vandetanib, N-oxide higher. Here is the method:
as §2

Another series deals with mouse hepatic microsomes. Kind of series: Oxidation of vandetanib by mouse hepatic microsomes. The format is in vitro ADME. To be noted: 50 µM vandetanib, N-oxide higher. Here is the method:
as §2

For series [6], the target named is CYP enzymes in human liver microsomes (Homo sapiens, UniProt P08684). Kind of series: Effects of inhibitors on N-desmethylvandetanib formation in human liver microsomes. The settings on record: inhibitor 50 μM equimolar to vandetanib (50 μM), 0.1 nmol microsomal CYP. Here is the method:
After the incubations, 5 µL of 1 mM phenacetine (dissolved in methanol) was added as internal standard. The reaction was stopped by extraction with dichlormethane (2 × 1 mL).
Inhibition studies in human liver microsomes were essentially conducted as reported previously.

Marks after values point to notes of the source that are not given here.

Sequence of CYP enzymes in human liver microsomes (P08684 2-503): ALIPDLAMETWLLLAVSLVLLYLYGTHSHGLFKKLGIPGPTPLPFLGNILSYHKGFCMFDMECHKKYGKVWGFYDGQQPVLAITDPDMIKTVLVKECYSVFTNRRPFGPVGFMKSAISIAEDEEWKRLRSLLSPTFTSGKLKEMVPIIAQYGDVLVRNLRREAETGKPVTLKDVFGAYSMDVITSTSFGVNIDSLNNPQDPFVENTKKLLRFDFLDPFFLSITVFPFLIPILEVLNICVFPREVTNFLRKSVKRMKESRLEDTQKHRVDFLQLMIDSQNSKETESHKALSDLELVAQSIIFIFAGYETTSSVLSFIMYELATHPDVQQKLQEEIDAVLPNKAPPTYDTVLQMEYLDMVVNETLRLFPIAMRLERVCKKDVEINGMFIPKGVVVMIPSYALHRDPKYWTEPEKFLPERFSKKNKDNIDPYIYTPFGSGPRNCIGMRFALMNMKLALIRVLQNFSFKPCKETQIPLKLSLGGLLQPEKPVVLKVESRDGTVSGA
Sequence of CYP enzymes in human liver microsomes (P16435 2-677, further chain): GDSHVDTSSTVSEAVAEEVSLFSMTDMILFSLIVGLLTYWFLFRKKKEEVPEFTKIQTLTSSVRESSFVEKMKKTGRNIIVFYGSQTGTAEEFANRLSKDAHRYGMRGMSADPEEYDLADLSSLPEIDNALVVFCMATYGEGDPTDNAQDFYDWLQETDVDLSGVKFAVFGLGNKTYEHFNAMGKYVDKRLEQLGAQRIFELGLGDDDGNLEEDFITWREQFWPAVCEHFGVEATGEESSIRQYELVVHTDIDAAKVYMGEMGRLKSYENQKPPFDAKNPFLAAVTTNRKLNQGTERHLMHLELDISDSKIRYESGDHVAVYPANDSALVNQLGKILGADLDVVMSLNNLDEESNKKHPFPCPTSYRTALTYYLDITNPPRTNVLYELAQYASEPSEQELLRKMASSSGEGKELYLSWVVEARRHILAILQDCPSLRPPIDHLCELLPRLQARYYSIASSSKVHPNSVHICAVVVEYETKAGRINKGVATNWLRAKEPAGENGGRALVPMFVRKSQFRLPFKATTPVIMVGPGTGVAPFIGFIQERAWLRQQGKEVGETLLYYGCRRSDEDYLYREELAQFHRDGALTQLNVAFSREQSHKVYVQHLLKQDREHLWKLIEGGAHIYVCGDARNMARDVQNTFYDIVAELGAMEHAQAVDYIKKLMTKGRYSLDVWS

`CCC(C)n1ncn(-c2ccc(N3CCN(c4ccc(OCC5COC(Cn6cncn6)(c6ccc(Cl)cc6Cl)O5)cc4)CC3)cc2)c1=O` (stereo not shown) [itraconazol]: the “inhibition of the formation of N-desmethylvandetanib after vandetanib treatment” value in the series with CYP3A4 is listed as “almost ineffective”.

On to `COc1cc2c(Nc3ccc(Br)cc3F)ncnc2cc1OCC1CCN(C)CC1` [vandetanib, N-(4-bromo-2-fluorophenyl)-6-methoxy-7-[(1-methylpiperidin-4-yl)-methoxy]-quinazolin-4-amine, reference compound], for which the “VMax, maximal velocity of N-desmethylvandetanib formation” value on human recombinant CYP1A1 (CYP1A1, hyperbolic kinetics) came to 0.76 ± 0.02 peak area/min/nmol CYP. On human recombinant CYP1A1 (CYP1A1, oxidation to N-desmethylvandetanib), the “K0.5, substrate concentration corresponding to half-maximal velocity” value amounted to 35.12 ± 2.75 µM.

For the compound `COc1cc2c(Nc3ccc(Br)cc3F)ncnc2cc1OCC1CC[N+](C)([O-])CC1` (stereo not shown) [vandetanib-N-oxide], the “Correlation coefficient (r) of metabolite amount with POR” value in the series with human hepatic microsomes [1] turned out to be 0.035. Also, in the series on human hepatic microsomes [1], the “Correlation coefficient (r) of metabolite amount with Total CYPs” value is given as 0.166. The “Correlation coefficient (r) of metabolite amount with CYP2C19 activity” value in the series on human hepatic microsomes [1] ((S)-mephenytoin-4′-hydroxylase) turned out to be 0.088. Also, the “Correlation coefficient (r) of metabolite amount with CYP2B6 activity” value in the series on human hepatic microsomes [1] ((S)-mephenytoin-N-demethylase) is 0.093. For the same compound, the “Correlation coefficient (r) of metabolite amount with CYP2D6 activity” value with human hepatic microsomes [1] (bufuralol-1′-hydroxylase) was −0.343. For the same compound, the “Correlation coefficient (r) of metabolite amount with CYP2E1 activity” value was 0.714 with human hepatic microsomes [1] and 0.714 ** with human hepatic microsomes [1] (listed as M2). In the series with human hepatic microsomes [1] (coumarine-7-hydroxylase), the “Correlation coefficient (r) of metabolite amount with CYP2A6 activity” value is given as −0.339. In addition, the “Correlation coefficient (r) of metabolite amount with CYP2C9 activity” value in the series with human hepatic microsomes [1] (diclofenac-4′-hydroxylase) is −0.039. Also, the “Correlation coefficient (r) of metabolite amount with FMO activity” value in the series on human hepatic microsomes [1] (methyl-p-tolyl sulfide oxidase, listed as M2) is given as 0.736 **. Further, the “Correlation coefficient (r) of metabolite amount with CYP2C8 activity” value in the series with human hepatic microsomes [1] (paclitaxel-6α-hydroxylase) was 0.288. Besides, the “Correlation coefficient (r) of metabolite amount with CYP1A2 activity” value with human hepatic microsomes [1] (phenacetin-O-deethylase) was −0.157. Also, the “Correlation coefficient (r) of metabolite amount with CYP3A4 activity” value in the series on human hepatic microsomes [1] (testosterone-6β-hydroxylase) is listed as −0.200. The “F, fold difference between formation of N-desmethylvandetanib and vandetanib-N-oxide” value (in the series with rat hepatic microsomes; in series [5]; in the series with mouse hepatic microsomes) was 4- to 8 fold each time. Moreover, in the series with human recombinant FMO1, the “efficiency of FMO1 to form vandetanib-N-oxide relative to FMO3” value is “over 5 times”. Moreover, the “vandetanib-N-oxide (M2) formed” value in the series with human liver microsomes [2] was 0.008 peak area/(mg protein × min); in the series on human liver microsomes [4] (human hepatic microsomal sample HG24), 0.004 peak area/(mg protein × min); with human liver microsomes [4] (human hepatic microsomal sample HG42), 0.015 peak area/(mg protein × min); with human liver microsomes [4] (human hepatic microsomal sample HG74), 0.004 peak area/(mg protein × min); in the series on human liver microsomes [4] (human hepatic microsomal sample HG93) it was 0.112 peak area/(mg protein × min); in the series with human liver microsomes [4] (human hepatic microsomal sample HG103), 0.004 peak area/(mg protein × min). In the series with human liver microsomes [4] (human hepatic microsomal sample HK31), the “vandetanib-N-oxide (M2) formed” value is reported as 0.015 peak area/(mg protein × min). For the same compound, the “vandetanib-N-oxide formed at fold lower amounts than N-desmethylvandetanib” value in the series on human hepatic microsomes [3] was ~ 4 fold. Besides, the “pharmacological activity relative to vandetanib (fold less active)” value in the series on VEGFR and EGFR is given as “more than 50 fold”.

Consider `O=c1cc(-c2ccccc2)oc2c1ccc1ccccc12` [α-Napththoflavone, α-naphthoflavone], for which the results for the “% of Inhibition, N-Desmethyvandetanib Formation” value in [6] and in [6] (listed as α-NF) were 0% and “no inhibitory effects”, respectively.
